Where a SMILES comes first, the peptide text is derived from it. Bridges are numbered along the chain shown (N, C = ends). [ ]: non-standard residue; d: D form. Pro(trans-4-F) = O=C(O)[C@@H]1C[C@@H](F)CN1; Hyp = O=C(O)[C@@H]1C[C@@H](O)CN1; Pen = CC(C)(S)[C@H](N)C(=O)O; Orn = NCCC[C@H](N)C(=O)O; Dab = NCC[C@H](N)C(=O)O

Common to all, as to format: cell-based
Series [1] deals with Acinetobacter baumannii 872842. Conditions: 872842.
In series [2] the test system is Acinetobacter baumannii DSM 30008. Conditions: DSM 30008. A digest of the protocol: (§1)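 Inocula standardised to a 0.5 McFarland reference and diluted to about 10^6 CFU/mL in MH-II broth are incubated with two-fold peptide series containing 0.002% polysorbate 80. No visible growth after 18-20 hours at 35° C defines the MIC, in μg/mL.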
The next series relates to Escherichia coli 926415. The following applies: 926415.
Series [3] deals with Escherichia coli ATCC 25922. Conditions: ATCC 25922. Put shortly: as §1
Series [4] deals with Klebsiella pneumoniae 968733. The following applies: 968733.
The subject of series [5] is Klebsiella pneumoniae SSI #3010. The following applies: SSI #3010. A digest of the protocol: as §1
Series [6] has as its system Pseudomonas aeruginosa ATCC 27853. The following applies: ATCC 27853. Put shortly:
as §1

Series [7] deals with human red blood cells (hRBC). The series can be described thus: Hemolysis of human red blood cells. Conditions: red cells of human, 1 h, 100 μg/mL. Put shortly:
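Peptides at 100 μg/mL were incubated with PBS-washed fresh human erythrocytes (20% v/v, ~0.9×10^9 cells/mL final) for 1 h at 37° C. with shaking. Supernatant OD540 was read after 8-fold dilution; percent hemolysis was expressed relative to the 2.5% Triton X-100 full-lysis control, with PBS/0.001% acetic acid as 0%.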

`CC(C)C[C@@H]1NC(=O)[C@@H](CC(C)C)NC(=O)[C@H](CCN)NC(=O)[C@@H](NC(=O)[C@H](CCN)NC(=O)[C@H](NC(=O)[C@H](CCN)NC(=O)[C@H](CCCN)NC(=O)[C@@H]2CSSC[C@H](NC(=O)[C@@H](N)Cc3c[nH]c4ccccc34)C(=O)N[C@@H](C(C)C)C(=O)N[C@@H](C)C(=O)N[C@@H](CO)C(=O)N3CCC[C@@H]3C(=O)N3CCC[C@H]3C(=O)N[C@@H](CC(C)C)C(=O)N[C@@H](CO)C(=O)N[C@@H](Cc3ccc(O)cc3)C(=O)N2)[C@H](C)O)CCNC(=O)[C@H]([C@@H](C)O)NC(=O)[C@H](CCN)NC(=O)[C@H](CCN)NC1=O` [Ex. 121] (H-WCVAS[dP]PLSYC[Orn][Dab][dT][Dab][Dab][Dab][dL]L[Dab][Dab]T; disulfide 2-11; lactam 16-C): the “Acinetobacter baumannii 872842 MIC” value in series [1] is 0.125 µg/mL. The “Acinetobacter baumannii DSM 30008 MIC” value in series [2] was determined as 0.125 µg/mL. Moreover, the “Escherichia coli 926415 MIC” value in the series with Escherichia coli 926415 came to 0.125 µg/mL. Also, the “Escherichia coli ATCC 25922 MIC” value in series [3] was determined as 0.125 µg/mL. For the same molecule, in series [4], the “Klebsiella pneumoniae 968733 MIC” value was 0.25 µg/mL. In addition, the “Klebsiella pneumoniae SSI #3010 MIC” value in series [5] stood at 0.25 µg/mL. For the same molecule, the “Pseudomonas aeruginosa ATCC 27853 MIC” value in series [6] was determined as 0.5 µg/mL. In series [7], the “Hemolysis at 100 μg/mL” value was <1%.
Regarding `CC(C)C[C@@H]1NC(=O)[C@@H](CC(C)C)NC(=O)[C@H](CCN)NC(=O)[C@@H](NC(=O)[C@H](CCN)NC(=O)[C@@H](NC(=O)[C@H](CCN)NC(=O)[C@H](CCN)NC(=O)[C@H]2NC(=O)[C@H](Cc3ccc(O)cc3)NC(=O)[C@H](CO)NC(=O)[C@H](CC(C)C)NC(=O)[C@@H]3CCCN3C(=O)[C@H]3CCCN3C(=O)[C@H](CO)NC(=O)[C@H](C)NC(=O)[C@H](C(C)C)NC(=O)[C@@H](NC(=O)[C@@H](N)Cc3c[nH]c4ccccc34)C(C)(C)SSC2(C)C)[C@@H](C)O)CCNC(=O)[C@H]([C@@H](C)O)NC(=O)[C@H](CCN)NC(=O)[C@H](CCN)NC1=O` [Ex. 122] (H-W[Pen]VAS[dP]PLSY[Pen][Dab][Dab]T[Dab][Dab][Dab][dL]L[Dab][Dab]T; disulfide 2-11; lactam 16-C), the “Acinetobacter baumannii 872842 MIC” value in series [1] came out at 0.03125 µg/mL. The “Acinetobacter baumannii DSM 30008 MIC” value in series [2] turned out to be 0.125 µg/mL. In addition, the “Escherichia coli 926415 MIC” value in the series with Escherichia coli 926415 was 0.25 µg/mL. The “Escherichia coli ATCC 25922 MIC” value in series [3] amounted to 0.0625 µg/mL. Moreover, the “Klebsiella pneumoniae 968733 MIC” value in series [4] was 1 µg/mL. Besides, the “Klebsiella pneumoniae SSI #3010 MIC” value in series [5] is 0.5 µg/mL. For the same molecule, the “Pseudomonas aeruginosa ATCC 27853 MIC” value in series [6] stood at 0.5 µg/mL. Besides, the “Hemolysis at 100 μg/mL” value in series [7] was determined as 2%.
For `CC(C)C[C@@H]1NC(=O)[C@@H](CC(C)C)NC(=O)[C@H](CCN)NC(=O)[C@@H](NC(=O)[C@H](CCN)NC(=O)[C@@H](NC(=O)[C@H](CCN)NC(=O)[C@H](CCN)NC(=O)[C@@H]2CSSC[C@H](NC(=O)[C@@H](N)Cc3c[nH]c4ccccc34)C(=O)N[C@@H](C(C)C)C(=O)N[C@@H](C)C(=O)N[C@@H](CO)C(=O)N3CCC[C@@H]3C(=O)N3C[C@H](O)C[C@H]3C(=O)N[C@@H](CC(C)C)C(=O)N[C@@H](CO)C(=O)N[C@@H](Cc3ccc(O)cc3)C(=O)N2)[C@@H](C)O)CCNC(=O)[C@H]([C@@H](C)O)NC(=O)[C@H](CCN)NC(=O)[C@H](CCN)NC1=O` [Ex. 123] (H-WCVAS[dP][Hyp]LSYC[Dab][Dab]T[Dab][Dab][Dab][dL]L[Dab][Dab]T; disulfide 2-11; lactam 16-C), the “Acinetobacter baumannii 872842 MIC” value in series [1] worked out at 0.0625 µg/mL. In series [2], the “Acinetobacter baumannii DSM 30008 MIC” value came out at 0.25 µg/mL. Further, the “Escherichia coli 926415 MIC” value in the series with Escherichia coli 926415 worked out at 0.25 µg/mL. For the same molecule, the “Escherichia coli ATCC 25922 MIC” value in series [3] was found to be 0.125 µg/mL. The “Klebsiella pneumoniae 968733 MIC” value in series [4] turned out to be 4 µg/mL. Moreover, the “Klebsiella pneumoniae SSI #3010 MIC” value in series [5] was found to be 0.125 µg/mL. Also, in series [6], the “Pseudomonas aeruginosa ATCC 27853 MIC” value came to 1 µg/mL. For the same molecule, the “Hemolysis at 100 μg/mL” value in series [7] is <1%.
Regarding `CC(C)C[C@@H]1NC(=O)[C@@H](CC(C)C)NC(=O)[C@H](CCN)NC(=O)[C@@H](NC(=O)[C@H](CCN)NC(=O)[C@@H](NC(=O)[C@H](CCN)NC(=O)[C@H](CCN)NC(=O)[C@@H]2CSSC[C@H](NC(=O)[C@@H](N)Cc3c[nH]c4ccccc34)C(=O)N[C@@H](C(C)C)C(=O)N[C@@H](C)C(=O)N[C@@H](CO)C(=O)N3CCC[C@@H]3C(=O)N3C[C@H](F)C[C@H]3C(=O)N[C@@H](CC(C)C)C(=O)N[C@@H](CO)C(=O)N[C@@H](Cc3ccc(O)cc3)C(=O)N2)[C@@H](C)O)CCNC(=O)[C@H]([C@@H](C)O)NC(=O)[C@H](CCN)NC(=O)[C@H](CCN)NC1=O` [Ex. 124] (H-WCVAS[dP][Pro(trans-4-F)]LSYC[Dab][Dab]T[Dab][Dab][Dab][dL]L[Dab][Dab]T; disulfide 2-11; lactam 16-C), the “Acinetobacter baumannii 872842 MIC” value in series [1] turned out to be 0.25 µg/mL. Further, the “Acinetobacter baumannii DSM 30008 MIC” value in series [2] came to 0.125 µg/mL. In addition, the “Escherichia coli 926415 MIC” value with Escherichia coli 926415 is 0.125 µg/mL. Further, the “Escherichia coli ATCC 25922 MIC” value in series [3] came out at 0.0625 µg/mL. Moreover, the “Klebsiella pneumoniae 968733 MIC” value in series [4] stood at 0.5 µg/mL. Further, in series [5], the “Klebsiella pneumoniae SSI #3010 MIC” value worked out at 0.125 µg/mL. Besides, the “Pseudomonas aeruginosa ATCC 27853 MIC” value in series [6] is 0.5 µg/mL. In series [7], the “Hemolysis at 100 μg/mL” value is 1%.
As to `CC(C)C[C@@H]1NC(=O)[C@H](C)NC(=O)[C@H]2CCCN2C(=O)[C@H](CO)NC(=O)[C@H](C)NC(=O)[C@H](C(C)C)NC(=O)[C@@H](NC(=O)[C@@H](N)Cc2c[nH]c3ccccc23)CSSC[C@@H](C(=O)N[C@@H](CCN)C(=O)N[C@@H](CCN)C(=O)N[C@H](C(=O)N[C@@H](CCN)C(=O)N[C@H]2CCNC(=O)[C@H]([C@@H](C)O)NC(=O)[C@H](CCN)NC(=O)[C@H](CCN)NC(=O)[C@H](CC(C)C)NC(=O)[C@@H](CC(C)C)NC(=O)[C@H](CCN)NC2=O)[C@@H](C)O)NC(=O)[C@H](Cc2ccc(O)cc2)NC(=O)[C@H](CO)NC1=O` [Ex. 125] (H-WCVAS[dP]ALSYC[Dab][Dab]T[Dab][Dab][Dab][dL]L[Dab][Dab]T; disulfide 2-11; lactam 16-C), the “Acinetobacter baumannii 872842 MIC” value in series [1] worked out at 0.0625 µg/mL. In addition, the “Acinetobacter baumannii DSM 30008 MIC” value in series [2] came to 0.125 µg/mL. Further, in the series on Escherichia coli 926415, the “Escherichia coli 926415 MIC” value was 0.25 µg/mL. The “Escherichia coli ATCC 25922 MIC” value in series [3] is 0.0625 µg/mL. Also, the “Klebsiella pneumoniae 968733 MIC” value in series [4] amounted to 1 µg/mL. For the same molecule, the “Klebsiella pneumoniae SSI #3010 MIC” value in series [5] turned out to be 0.125 µg/mL. Also, the “Pseudomonas aeruginosa ATCC 27853 MIC” value in series [6] came to 0.5 µg/mL. In addition, the “Hemolysis at 100 μg/mL” value in series [7] amounted to 1%.
Regarding `CC(C)C[C@@H]1NC(=O)[C@H]([C@@H](C)O)NC(=O)[C@H]2CCCN2C(=O)[C@H](CO)NC(=O)[C@H](C)NC(=O)[C@H](C(C)C)NC(=O)[C@@H](NC(=O)[C@@H](N)Cc2c[nH]c3ccccc23)CSSC[C@@H](C(=O)NCC(=O)N[C@@H](CCN)C(=O)N[C@H](C(=O)N[C@@H](CCN)C(=O)N[C@H]2CCNC(=O)[C@H]([C@@H](C)O)NC(=O)[C@H](CCN)NC(=O)[C@H](CCN)NC(=O)[C@H](CC(C)C)NC(=O)[C@@H](CC(C)C)NC(=O)[C@H](CCN)NC2=O)[C@@H](C)O)NC(=O)[C@H](Cc2ccc(O)cc2)NC(=O)[C@H](CO)NC1=O` [Ex. 126] (H-WCVAS[dP]TLSYCG[Dab]T[Dab][Dab][Dab][dL]L[Dab][Dab]T; disulfide 2-11; lactam 16-C), the “Acinetobacter baumannii 872842 MIC” value in series [1] is 0.125 µg/mL. For the same molecule, the “Acinetobacter baumannii DSM 30008 MIC” value in series [2] was found to be 0.0625 µg/mL. Besides, the “Escherichia coli 926415 MIC” value with Escherichia coli 926415 was found to be 0.5 µg/mL. Moreover, the “Escherichia coli ATCC 25922 MIC” value in series [3] amounted to 0.0625 µg/mL. Besides, in series [4], the “Klebsiella pneumoniae 968733 MIC” value came to 0.5 µg/mL. For the same molecule, in series [5], the “Klebsiella pneumoniae SSI #3010 MIC” value came to 0.0625 µg/mL. Moreover, the “Pseudomonas aeruginosa ATCC 27853 MIC” value in series [6] was determined as 0.5 µg/mL. Besides, the “Hemolysis at 100 μg/mL” value in series [7] is given as 1%.
Turning to `CC(C)C[C@@H]1NC(=O)[C@H](CCN)NC(=O)[C@H]2CCCN2C(=O)[C@H](CO)NC(=O)[C@H](C)NC(=O)[C@H](C(C)C)NC(=O)[C@@H](NC(=O)[C@@H](N)Cc2c[nH]c3ccccc23)CSSC[C@@H](C(=O)N[C@@H](CCN)C(=O)N[C@@H](CCN)C(=O)N[C@H](C(=O)N[C@@H](CCN)C(=O)N[C@H]2CCNC(=O)[C@H]([C@@H](C)O)NC(=O)[C@H](CCN)NC(=O)[C@H](CCN)NC(=O)[C@H](CC(C)C)NC(=O)[C@@H](CC(C)C)NC(=O)[C@H](CCN)NC2=O)[C@@H](C)O)NC(=O)[C@H](Cc2ccc(O)cc2)NC(=O)[C@H](CO)NC1=O` [Ex. 127] (H-WCVAS[dP][Dab]LSYC[Dab][Dab]T[Dab][Dab][Dab][dL]L[Dab][Dab]T; disulfide 2-11; lactam 16-C), in series [1], the “Acinetobacter baumannii 872842 MIC” value came to 0.25 µg/mL. Also, the “Acinetobacter baumannii DSM 30008 MIC” value in series [2] turned out to be 0.25 µg/mL. Moreover, the “Escherichia coli 926415 MIC” value with Escherichia coli 926415 worked out at 2 µg/mL. For the same molecule, the “Escherichia coli ATCC 25922 MIC” value in series [3] was 1 µg/mL. Also, the “Klebsiella pneumoniae 968733 MIC” value in series [4] came to 8 µg/mL. For the same molecule, in series [5], the “Klebsiella pneumoniae SSI #3010 MIC” value is 0.25 µg/mL. Moreover, the “Pseudomonas aeruginosa ATCC 27853 MIC” value in series [6] came out at 0.5 µg/mL. For the same molecule, in series [7], the “Hemolysis at 100 μg/mL” value amounted to 1%.
